Here are results for one compound from US20240165129A1, “METHODS OF TREATING PAIN AND DEPRESSION” (priority 2022, published 2024).

“Also recorded” adds a separate entry of the source. Read-outs that look alike come from different tables or passages of the source.

Data set [1] addresses T1, homomeric ASIC1a channels (Homo sapiens, UniProt P78348).
T1 construct: expressed in transfected cells
T1 sequence (P78348 1-528): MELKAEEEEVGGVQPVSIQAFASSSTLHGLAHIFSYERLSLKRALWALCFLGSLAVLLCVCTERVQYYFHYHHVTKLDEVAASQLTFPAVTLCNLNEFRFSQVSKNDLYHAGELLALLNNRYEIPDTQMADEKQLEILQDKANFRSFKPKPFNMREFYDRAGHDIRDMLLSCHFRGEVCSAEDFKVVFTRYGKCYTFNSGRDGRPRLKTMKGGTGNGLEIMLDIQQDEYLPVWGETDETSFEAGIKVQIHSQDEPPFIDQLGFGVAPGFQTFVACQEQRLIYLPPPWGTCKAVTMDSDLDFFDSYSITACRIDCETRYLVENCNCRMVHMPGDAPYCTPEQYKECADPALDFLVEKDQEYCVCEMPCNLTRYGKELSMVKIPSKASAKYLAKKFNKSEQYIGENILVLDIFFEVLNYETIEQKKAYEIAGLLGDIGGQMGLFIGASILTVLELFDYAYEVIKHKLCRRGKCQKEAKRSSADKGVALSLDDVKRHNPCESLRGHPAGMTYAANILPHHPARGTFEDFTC
The class given is cell-based.

For data set [2], the system named is mice brain after MCAO. The following applies: mouse, in vivo.
Data set [3] has as its system mice (depression-like behavior). The data set can be described thus: Sucrose preference and chronic (unpredictable) mild stress. The class given is in vivo, mouse. The protocol:
Sucrose preference is assessed in individually housed, stressed and unstressed mice. Briefly, two bottles (one 8% sucrose and one water) are placed in each cage for 3 d; 2 d to habituate and 1 d to assess sucrose preference. The locations of the bottles are rotated each 24-h period. At the beginning and end of the final 12-h period both bottles are weighed, and sucrose preference is defined as sucrose solution consumed/total liquid consumed×100%. Unstressed mice only undergo the 3 d sucrose preference assessment. Stressed mice also undergo 6 d of unpredictable stressors in the following order: restraint (3 h), wetted bedding (12 h), restraint (3 h), 45° angle cage tilt (12 h), paired housing with an unfamiliar mouse (1 h), exposure to a predator odor (1 h) (trimethylthiazoline, Pherotech International). Sucrose preference is then assessed during the final overnight period as described above.

Data set [4] has as its system primary cultured mouse cortical neurons. The following applies: pH 6.0, n=7-8.
For data set [5], the system named is stroke. As to conditions: in vivo; cited from earlier work.
Data set [6] relates to primary cultured mouse cortical neurons. The data set can be described thus: Acidosis-induced neuronal injury, FDA/PI staining. The following applies: 1 and 10 μM, pH 6.0 for 1.5 h, 24 h.
Data set [7] concerns the target T2, homomeric ASIC1β (Rattus norvegicus, UniProt P55926).
T2 sequence (P55926 1-559 isoform P55926-3): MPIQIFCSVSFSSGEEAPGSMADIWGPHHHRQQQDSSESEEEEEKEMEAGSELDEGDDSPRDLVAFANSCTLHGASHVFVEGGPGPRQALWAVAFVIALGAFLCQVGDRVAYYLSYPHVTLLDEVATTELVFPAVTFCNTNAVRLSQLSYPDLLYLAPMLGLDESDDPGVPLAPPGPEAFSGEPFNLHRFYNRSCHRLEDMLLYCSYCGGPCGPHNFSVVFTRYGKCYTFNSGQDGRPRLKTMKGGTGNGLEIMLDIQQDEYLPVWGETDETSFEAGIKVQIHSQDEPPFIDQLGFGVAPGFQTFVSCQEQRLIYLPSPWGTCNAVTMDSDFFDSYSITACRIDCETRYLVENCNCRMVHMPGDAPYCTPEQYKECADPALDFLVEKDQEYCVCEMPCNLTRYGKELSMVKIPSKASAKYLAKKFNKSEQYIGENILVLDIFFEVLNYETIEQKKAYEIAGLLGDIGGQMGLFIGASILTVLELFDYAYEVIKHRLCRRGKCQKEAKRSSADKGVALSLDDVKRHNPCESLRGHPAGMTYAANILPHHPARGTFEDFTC
The data set can be described thus: Patch-clamp recording of ASIC1β currents in CHO cells with transient expression. The following applies: 10 μM, pH drop 7.4 to 6.0, n=4-5. A general note: In patch-clamp work, channel activity is measured electrically.
Protocol: (§1) Chinese hamster ovary (CHO) cells were cultured in F12-K medium (Invitrogen) plus 10% fetal bovine serum, 50 units/nal penicillin, and 50 μg/m1 streptomycin. At ˜50% confluence, CHO cells were co-transfected with cDNAs for rat ASIC1β, ASIC2a, or ASIC3, and that for GFP. GFP-positive cells were used for electrophysiological recordings 24-72 h after transient transfection.
(§2) ASIC currents were recorded using patch-clamp techniques. Pipette solution contained (mM): 140 CsF, 1 CaCl2, 2 MgCl2, 11 EGTA, 2 tetraethylammonium chloride, 10 HEPES and 4 MgATP, pH 7.3 adjusted with CsOH, 290-300 mOsm. Extracellular Fluid (ECF) contained (mM): 140 NaCl, 5.4 KCl, 2 CaCl2, 1 MgCl2, 10 glucose, and 10 HEPES (320-330 mOsm). A multi-barrel perfusion system (SF-77 Warner Instruments, Hamden, CT) was used to obtain a rapid exchange of ECFs. Currents were recorded with Axopatch 200B amplifier, filtered at 2 kHz, and digitized at 5 kHz using Digidata 1332A. ASIC currents were induced by rapid perfusion of the cells with acidic ECF for 4 seconds. Unless otherwise stated, cells were clamped at a holding potential of −60 mV. […] Data were excluded for statistical analysis when access resistance was >10 MΩ or leak current was >100 pA.
(§3) Therefore, the study used pH 6.0 and 4.5 to activate ASIC1β and ASIC2a currents, respectively. […]

For data set [8], the target named is T3, homomeric ASIC2a (Rattus norvegicus, UniProt Q62962).
T3 sequence (Q62962 1-512): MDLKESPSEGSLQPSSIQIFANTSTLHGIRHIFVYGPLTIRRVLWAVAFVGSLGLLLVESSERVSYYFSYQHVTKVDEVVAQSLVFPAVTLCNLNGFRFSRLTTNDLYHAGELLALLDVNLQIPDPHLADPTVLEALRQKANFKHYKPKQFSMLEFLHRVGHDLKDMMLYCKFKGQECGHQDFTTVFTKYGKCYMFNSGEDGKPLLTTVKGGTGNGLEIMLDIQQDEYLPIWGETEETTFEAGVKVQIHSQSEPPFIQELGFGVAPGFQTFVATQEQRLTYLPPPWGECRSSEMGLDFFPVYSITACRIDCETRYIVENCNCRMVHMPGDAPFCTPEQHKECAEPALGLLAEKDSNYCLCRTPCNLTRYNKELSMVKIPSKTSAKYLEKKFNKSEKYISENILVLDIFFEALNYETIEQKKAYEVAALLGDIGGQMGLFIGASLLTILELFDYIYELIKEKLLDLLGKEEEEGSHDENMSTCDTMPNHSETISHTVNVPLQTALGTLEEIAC
The data set can be described thus: Patch-clamp recording of ASIC2a currents in CHO cells with transient expression. The following applies: 10 μM, pH drop 7.4 to 4.5, n=4-5.
Protocol: as §1, §2, §3

Data set [9] deals with Sprague-Dawley rats (CFA-induced pain). The data set can be described thus: CFA rat pain model, paw pressure (vocalization) and mechanical hypersensitivity tests.
Protocol: Male Sprague-Dawley rats (150-175 g) are acclimatized for a week before testing. Rats are housed in a controlled room with a 12-hour light/dark cycle, with free access to food and water. Rats are housed 4 per cage except after the bilateral implantation experiment (2 per cage and individually following surgery). Pain is induced by a single unilateral intra-articular injection of 50 μl complete Freund's adjuvant (CFA, heat-killed Mycobacterium 2 mg/ml) in the right hindpaw under isoflurane (4%) anaesthesia. Sham rats are injected with 50 μl of vehicle in the same conditions. Behavioral experiments are performed 14-16 days after pain induction, when rats weighed between 260 to 320 g. […]
The effect of Triol (0.05 μg/0.5 μl/side) 15 min before the behavioral tests is evaluated in sham and Pain rats, 14 to 16 days following pain induction. The behavior of each rat is then assessed in the different tests (i.e., social interaction or elevated plus maze for anxiety, and paw pressure or paw immersion for pain, see below).
Mechanical hypersensitivity in sham and Pain animals is assessed with an analgesiometer (paw pressure test). Nociceptive thresholds are measured by applying increased pressure to the ipsilateral ankle of unrestrained rats until a vocalisation is obtained. […] Vocalization threshold is assessed at baseline and 15, 25 and 45 min following Triol, mambalgin-1 or saline administration.

What is called inhibition is the percentage by which the read-out fell short of the control. For `CC(C)CCC[C@@H](C)[C@H]1CC[C@H]2[C@@H]3C[C@@H](O)[C@@]4(O)C[C@@H](O)CC[C@]4(C)[C@H]3CC[C@]12C` [Triol, cholestane-3β, 5α, 6β-triol], in data set [1] (1 μM Triol, within 5 minutes of application, pH drop 7.4 to 6.0, n=5, read-out: inhibition of ASIC1a currents), the inhibition at 1 µM was around 20%. In addition, the inhibition at 10 µM in [1] (10 μM Triol, within 5 minutes of application, pH drop 7.4 to 6.0, n=5, read-out: inhibition of ASIC1a currents) was around 40%. The inhibition at 10 µM in [1] (10 μM, once/one min, within 5 min of recording, read-out: inhibition of ASIC current, higher stimulatory frequency) is around 40%. The inhibition at 10 µM in data set [1] (10 μM, once/two min, within 5 min of recording, read-out: inhibition of ASIC1a currents, lower stimulatory frequency) is around 20%. Also, the “reversibility of ASIC1a inhibition” value in data set [1] (after 30 min washout (data not shown)) was “irreversible”. Besides, in data set [2], the “infarct volume, Triol in the presence of PcTx-1” value is “no additional reduction” and the “protection against ischemic brain injury” value is reported as “didn't show additional protection; also recorded: A similar result; also recorded: significant protection”. For the same compound, the “depression-like behavior following unpredictable mild stress” value in [3] was “decreased levels of depression-like behavior”. Besides, the “acid-induced cytotoxicity (LDH release)” value in [4] is “significantly decreased”. Moreover, in data set [5], the “therapeutic time window for stroke treatment” value was “at least 4 h”. In data set [6], the “death rate of cortical neurons (PI staining)” value is given as “decrease death rate” and the “survival rate of cortical neurons (FDA staining)” value is on record as “increase survival rate”. In addition, the “effect on ASIC1β currents” value in data set [7] is given as “no significant effect”. Besides, the “effect on ASIC2a currents” value in [8] is reported as “no significant effect”. Also, in data set [9], the “effects in the pain tests relative to commonly used pain relief drugs” value is “independent of and additive to”; the “pain-related behavior in vocalization and mechanical hypersensitivity tests” value is listed as “decreased levels of pain-related behavior”.
